According to patent publication US5637724A (priority 1995, dated 1997):

Target: GABAa receptor
Experiment: GABAa receptor binding, displacement of 3H-RO15-1788 [3H-Flumazenil]
Details: rat cortical tissue, 0.5 nM 3H-RO15-1788, 30 min at 4° C., pH 7.4
Method: The pharmaceutical utility of compounds of this invention are indicated by the following assay for GABAa receptor activity.
Assays are carded out as described in Thomas and Tallman (J. Bio. Chem. 156: 9838-9842, J. Neurosci. 3: 433-440, 1983). Rat conical tissue is dissected and homogenized in 25 volumes (w/v) of 0.05M Tris HCl buffer (pH 7.4 at 4° C.). The tissue homogenate is centrifuged in the cold (4°) at 20,000×g for 20'. The supernatant is decanted and the pellet is rehomogenized in the same volume of buffer and again centrifuged at 20,000×g. The supernatant is decanted and the pellet is frozen at -20° C. overnight. The pellet is then thawed and rehomogenized in 25 volume (original wt/vol) of buffer and the procedure is carded out twice. The pellet is finally resuspended in 50 volumes (w/vol of 0.05M Tris HCl buffer (pH 7.4 at […]).
Incubations contain […] of tissue homogenate, […] of radioligand 0.5 nM (3H-RO15-1788 [^3 H-Flumazenil] specific activity 80 Ci/mmol), drug or blocker and buffer to a total volume of […]. Incubations are carried for 30 min at 4° C. then are rapidly filtered through GFB filters to separate free and bound ligand. Filters are washed twice with fresh 0.05M Tris HCl buffer (pH 7.4 at 4° C.) and counted in a liquid scintillation counter. 1.0 mM diazepam is added to some tubes to determine nonspecific binding. Data are collected in triplicate determinations, averaged and % inhibition of total specific binding is calculated. Total Specific Binding=Total-Nonspecific. In some cases, the amounts of unlabeled drugs is varied and total displacement curves of binding are carded out. Data are converted to a form for the calculation of IC50 and Hill Coefficient (nH).

SMILES | Ki [nM]
O=c1[nH]c2c(n1-c1nc3ccc(F)c(F)c3o1)CCCCC2 [Compound 1] | 3
O=c1[nH]c2c(n1-c1nc3ccc(F)cc3o1)CCCCC2 [Compound 2] | 4.6
O=c1[nH]c2cc(F)ccc2n1-c1nc2cccc(F)c2o1 [Compound 3, 3-(2-(7-fluorobenzoxazyl))-6-fluorobenzimidazol-2-(1H)-one] | 14
O=c1[nH]c2cc(F)ccc2n1-c1nc2ccc(F)cc2o1 [Compound 4, 3-(2-(6-fluorobenzoxazyl))-6-fluorobenzimidazol-2-(1H)-one] | 25
O=c1[nH]c2c(n1-c1nc3ccc(F)c(F)c3o1)CCCC2 [Compound 5] | 21
COc1ccc2oc(-n3c4c([nH]c3=O)CCCC4)nc2c1 [Compound 6] | 81
